This is an account of results in patent US12600696B2 (XENIOPRO GMBH, priority 2017, dated 2026).

What all share (assay type): cell-based
Experiment [1] deals with HPEKp cells (human epidermal keratinocyte progenitors, pooled). The experiment in a line: alamarBlue proliferation assay with HPEKp cells. Conditions: 120 h, relative to DMSO basis level 1.0, read-out: weighted arithmetic mean (AVEw) of normalized fluorescence intensity, activity range. On the procedure: (§1) The antiproliferative activities of compounds falling under formula I, formula II, formula III, formula IV and formula V were investigated on cells or cell lines originating from a disorder of the myeloid cell compartment, the neuroendocrine system, the cervix, and the mucosal epithelium, as well as from the skin epithelium. To this end, HL-60 cells, TT cells, HeLa cells, CAL-27 cells and human primary epidermal keratinocytes (HPEK) were seeded into 96-well plates suitable for fluorescence assays (CORNING #3598) at following initial cell numbers: 1000 cells per well for HL-60; 9000 cells per well for TT; 2000 cells per well for HeLa, 2000 cells per well for CAL-27, 2000 cells per well for HPEK. The cells were treated with compounds at indicated final concentrations (diluted from the 1000× stock-solutions in DMSO to a final DMSO concentration of 0.1% v/v) or with the empty carrier DMSO at 0.1% v/v as control for 5 days. At day 5 after starting the treatments the cells were subjected to the alamarBlue® Proliferation Assay (Bio-Rad Serotec GmbH, BUF012B) according to the protocol of the manufacturer. The readout was taken with a multi-well plate-reader in the fluorescence mode with applying a filter for excitation at 560 nm (band width 10 nm) and for emission at 590 nm (band width 10 nm). Resveratrol (RES) treatment was included as control for growth inhibition.
(§2) The assays were performed in duplicate or more replicates of independent single experiments each containing a six-fold replicate for every condition. For every individual plate, the measured fluorescence intensity values of the conditions with compound treatment were normalized against the corresponding equally weighted arithmetic mean of the fluorescence intensity values of the six DMSO treated control wells in order to obtain the relative values to a baseline level of 1.0. The statistical calculations were performed in analogy to the luciferase assay as described above. To this end, two independent outlier analyses were performed according to the methods by Peirce and Chauvenet (Ross, Journal of Engineering Technology 2003, 1-12). Outliers confirmed by at least one of the methods were excluded from the calculations but not more than one value out of six per compound within a single experiment. The weighted arithmetic mean AVEw for each compound was calculated from the normalized values over all independent replicates of the single experiments comprising the six replicates each. The corresponding standard deviation for the weighted arithmetic mean was calculated according to the method described by Bronstein et al. (Bronstein, Semendjajew, Musiol, Mühlig, Taschenbuch der Mathematik, 5th edition 2001 (German), publisher: Verlag Harri Deutsch, Frankfurt am Main and Thun) and was combined with the Gauß′ error propagation associated with the performed calculation for the normalization. The resulting standard deviation is herein referred to as “combined standard deviation”.
HPEKp cells were cultivated according to the protocol of the provider in CnT-Prime epithelial culture medium (CELLnTEC, #CnT-PR, a fully defined, low calcium formulation, completely free of animal or human-derived components) without addition of further components.
(§3) A compound is considered as a growth inhibitor of HPEKp cells, if—at a reference concentration of 10 μM—the weighted arithmetic mean of the normalized fluorescence intensity values after addition of the corresponding combined standard deviation amounts to 0.9 or lower, in particular to 0.8 or lower, 0.7 or lower, 0.6 or lower, 0.4 or lower, and 0.2 or lower, relative to the overall basis level of 1.0. The overall basis level was calculated as the weighted arithmetic mean of all normalized values from the DMSO control measurements in analogy to the calculations performed for the test-compounds. The corresponding combined standard deviation for the DMSO values amounts to less than 1·10^−2.
For orientation: Alamar Blue is a resazurin reagent that responds to reducing activity.

Experiment [2] deals with Notch signaling (hNotch1ΔE, human Notch1 receptor) in HeLa cells. Put plainly: Notch reporter assay (luciferase luminescence readout in transfected HeLa cells). Conditions: Homo sapiens, 20 hours, relative to DMSO baseline level of 1.0, read-out: AVEw, weighted arithmetic mean of double-normalized Notch-reporter luciferase luminescence values (Activity Range). A digest of the protocol: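 HeLa cells were transiently transfected for 24 h with membrane-tethered constitutively active hNotch1ΔE, a CSL-promoter Firefly luciferase reporter and constitutive SV40-Renilla luciferase. Compounds were then applied at 10 μM (0.1% DMSO) for 20 h. Firefly/Renilla dual-luciferase ratios were normalized to DMSO control (baseline 1.0), outliers were excluded, and replicate values were averaged across ≥3 independent experiments.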
In general terms: In a reporter assay the amount or activity of a reporter protein is the signal.

The test system of experiment [3] is HL-60 cells (human acute myeloid leukemia cells). The experiment in a line: alamarBlue proliferation assay with HL-60 cells. The conditions noted are these: 120 h, 5 days, relative to DMSO baseline level of 1.0, read-out: AVEw, weighted arithmetic mean of normalized fluorescence intensity values (Activity Range), HL-60 proliferation. The essentials: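 HL-60 cells (1000/well, RPMI 1640 + 10% FBS) exposed to compound in 0.1% DMSO for 5 days, then alamarBlue fluorescence read (ex 560/em 590 nm). Signals normalized to six DMSO wells per plate (baseline 1.0); outliers removed by Peirce/Chauvenet; weighted mean with combined SD; inhibitor criterion judged at 20 μM reference concentration.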

Experiment [4] concerns CAL-27 cells (human tongue squamous cell carcinoma cells). The experiment in a line: alamarBlue proliferation assay with CAL-27 cells. The conditions noted are these: Homo sapiens, 120 h; for activity at 20 µM: 5 days, relative to DMSO baseline level of 1.0, read-out: AVEw, weighted arithmetic mean of normalized fluorescence intensity values (Activity Range), CAL-27 proliferation. On the procedure: as §1, §2
CAL-27 cells were cultivated according to the protocol of the provider (but at 5% instead of 10% CO2) in DMEM medium (Fisherscientific, #11584456) containing 10% fetal bovine serum (Fisherscientific, #15517589).
as §3, with “of CAL-27” for “of HPEKp”, “of 20” for “of 10”

Experiment [5] concerns TT cells (human medullary thyroid carcinoma cells). Put plainly: alamarBlue proliferation assay with TT cells. The conditions noted are these: Homo sapiens, 120 h, 40 μM, relative to DMSO basis level 1.0, read-out: weighted arithmetic mean (AVEw) of normalized fluorescence intensity, activity range. On the procedure:
as §1, §2
TT cells were cultivated according to the protocol of the provider in F-12K medium (Fisherscientific, #11580556, or ATCC, #ATCC-30-2004) containing 10% fetal bovine serum (Fisherscientific, #15517589).
as §3, with “of TT” for “of HPEKp”, “of 40” for “of 10”

As to `CCOC(=O)c1ccc(Oc2ccc(C3(C(F)(F)F)CC3)cc2)cc1` [Compound 721, ethyl 4-(4-(1-(trifluoromethyl)cyclopropyl)phenoxy)benzoate], the activity at 10 µM in experiment [1] was in the range of 70 to 80%. Besides, the fold induction at 10 µM in experiment [2] was 1.1 to 1.2. For the same molecule, the activity at 20 µM in experiment [3] fell in the range of 40 to 60%. `COC(=O)c1ccc(Oc2ccc(C3C[C@@H]4CC[C@H]3C4)cc2)nc1` (stereo partly drawn) [Compound 112, methyl 6-(4-((1S,4R)-bicyclo[2.2.1]heptan-2-yl)phenoxy)nicotinate]: in experiment [1], the activity at 10 µM was in the range of 40 to 60%. Take `O=C(NO)c1ccc(Oc2ccc(C3(C(F)(F)F)CC3)cc2Cl)nc1` [Compound 810, 6-(2-chloro-4-(1-(trifluoromethyl)cyclopropyl)phenoxy)-N-hydroxynicotinamide]: in experiment [1], the activity at 10 µM is 0 to 20%. Also, the activity at 20 µM in experiment [4] and in experiment [3] was 0 to 20% each time. As to `COC(=O)c1ccc(Oc2ccc(C34CC5CC(CC(C5)C3)C4)cc2)c(F)c1` [Compound 389, methyl 4-(4-((3r,5r,7r)-adamantan-1-yl)phenoxy)-3-fluorobenzoate], the activity at 10 µM in experiment [1] lay in the range of 20 to 40%. For the same molecule, the activity at 20 µM in experiment [3] lay in the range of 40 to 60%. Turning to `CNC(=O)c1ccc(Oc2ccc(C3(C(F)(F)F)CC3)cc2Cl)nc1` [Compound 819], in experiment [1], the activity at 10 µM lay within 70 to 80%. Also, in experiment [3], the activity at 20 µM lay in the range of 80 to 90%.

With `CNC(=O)c1ccc(Oc2ccc(C3CCCCC3)cc2)nc1` [Compound 309, 6-(4-cyclohexylphenoxy)-N-methylnicotinamide], in experiment [5], the activity at 40 µM lay within 80 to 90%. In the case of `O=C(O)c1ccc(Oc2ccc(C3C[C@@H]4CC[C@H]3C4)cc2)nc1` (stereo partly drawn) [Compound 086, 6-(4-((1S,4R)-bicyclo[2.2.1]heptan-2-yl)phenoxy)nicotinic acid], in experiment [1], the activity at 10 µM is 60 to 70%. Also, the fold induction at 10 µM in experiment [2] is 1.1 to 1.2. As to `CCCc1ccc(Oc2ccc(C(N)=O)cc2)cc1` [Compound 140, 4-(4-propylphenoxy)benzamide], the activity at 10 µM in experiment [1] was 80 to 90%. For the molecule `COC(=O)c1ccc(Oc2ccc(C3(C(F)(F)F)CC3)cc2Cl)nc1` [Compound 747, methyl 6-(2-chloro-4-(1-(trifluoromethyl)cyclopropyl)phenoxy)nicotinate], in experiment [1], the activity at 10 µM fell in the range of 80 to 90%. As to `CCC(C)(C)c1ccc(Oc2ccc(C(=O)N(C)C)cn2)cc1` [Compound 323, N,N-dimethyl-6-(4-(tert-pentyl)phenoxy)nicotinamide], the activity at 10 µM in experiment [1] was 70 to 80%. The fold induction at 10 µM in experiment [2] fell in the range of 1.1 to 1.2. Further, the activity at 20 µM in experiment [3] fell in the range of 40 to 60%. For `CN(C)C(=O)c1ccc(Oc2ccc(C3(C(F)(F)F)CC3)cc2Cl)nc1` [Compound 828, 6-(2-chloro-4-(1-(trifluoromethyl)cyclopropyl)phenoxy)-N,N-dimethylnicotinamide], the activity at 10 µM in experiment [1] fell in the range of 70 to 80%. The activity at 20 µM in experiment [3] fell in the range of 60 to 70%. For the molecule `CCC(C)(C)c1ccc(Oc2ccc(C(=O)OC)cc2F)cc1` [Compound 374, methyl 3-fluoro-4-(4-(tert-pentyl)phenoxy)benzoate], in experiment [1], the activity at 10 µM is 80 to 90%. Besides, the fold induction at 10 µM in experiment [2] lay within 1.1 to 1.2. Besides, in experiment [3], the activity at 20 µM lay in the range of 80 to 90%. For the molecule `O=C(O)c1cnc(Oc2ccc(C34CC5CC(CC(C5)C3)C4)cc2)c(F)c1` [Compound 440, 6-(4-((3r,5r,7r)-adamantan-1-yl)phenoxy)-5-fluoronicotinic acid], the activity at 10 µM in experiment [1] lay in the range of 20 to 40%. Also, in experiment [3], the activity at 20 µM was in the range of 70 to 80%.

On to `CC(C)(C)c1ccc(Oc2ncc(C(=O)O)cc2F)cc1` [Compound 424, 6-(4-(tert-butyl)phenoxy)-5-fluoronicotinic acid], for which the activity at 10 µM in experiment [1] lay within 70 to 80%. Turning to `O=C(NO)c1ccc(Oc2ccc(C3CC4CCC3CC4)cc2)cc1` (stereo not drawn) [Compound 185, 4-(4-((1s,4s)-bicyclo[2.2.2]octan-2-yl)phenoxy)-N-hydroxybenzamide], in experiment [1], the activity at 10 µM was in the range of 0 to 20%. Besides, the activity at 20 µM in experiment [4] and in experiment [3] was 0 to 20% throughout. On to `CNC(=O)c1ccc(Oc2ccc(C3CC4CCC3CC4)cc2)nc1` (stereo not drawn) [Compound 312, 6-(4-((1s,4s)-bicyclo[2.2.2]octan-2-yl)phenoxy)-N-methylnicotinamide], for which, in experiment [1], the activity at 10 µM was 70 to 80%. As to `CCOC(=O)c1ccc(Oc2ccc(C3(C(F)(F)C(F)(F)F)CC3)cc2)cc1` [Compound 722], the activity at 10 µM in experiment [1] was 40 to 60%. In addition, in experiment [4] (40 μM, relative to DMSO basis level 1.0, read-out: weighted arithmetic mean (AVEw) of normalized fluorescence intensity, activity range), the activity at 40 µM is 70 to 80%. In experiment [3], the activity at 20 µM lay within 40 to 60%. With `CCOC(=O)c1ccc(Oc2ccc(C3(C(F)(F)C(F)(F)F)CC3)cc2)nc1` [Compound 749, Ethyl 6-(4-(1-(perfluoroethyl)cyclopropyl)phenoxy)nicotinate], in experiment [1], the activity at 10 µM lay in the range of 80 to 90%. On the same count and under the same terms, then `NC(=O)c1ccc(Oc2ccc(C3(C(F)(F)F)CC3)cc2Cl)nc1` [Compound 801, 6-(2-chloro-4-(1-(trifluoromethyl)cyclopropyl)phenoxy)nicotinamide], with 80 to 90%. `O=C(O)c1ccc(Oc2ccc(C3(C(F)(F)C(F)(F)F)CC3)cc2)nc1` [Compound 731]: the activity at 10 µM in experiment [1] was 80 to 90%. In experiment [3], the activity at 20 µM was 80 to 90%. Regarding `CCc1ccc(Oc2ccc(C(=O)NC)cc2)cc1` [Compound 190, 4-(4-ethylphenoxy)-N-methylbenzamide], the activity at 10 µM in experiment [1] lay in the range of 60 to 70%.
